This note sets out measurements from ChEMBL document CHEMBL1201862, “PubChem BioAssay data set” (2004).

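Test compounds were applied to cells in 96-well plates for 48 hours at 5 doses. The concentration for 50% growth inhibition is given as GI50.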 Calls of active or inactive are those of the source. Cut-off read from the data, not from the text of the source: active = GI50 up to about 1.1 µM and inactive = higher.

Some test systems named below: UACC-62; HOP-62; SW-620; COLO 205; 786-0; SK-MEL-2; SR; HL-60; RXF 393; UO-31; HOP-92; SK-MEL-28; M14; MOLT-4; K562; U-251; CCRF-CEM; HCC 2998.
What all share (assay): inhibition of tumour cell growth, NCI panel, 48 h

Take `O=C(c1cccc2ccccc12)N1CCC(C2CCN(C(=O)c3cccc4ccccc34)CC2)CC1`: the GI50 in the test with UACC-62, in the test on HOP-62, with SW-620, with COLO 205, with 786-0 and with SK-MEL-2 was > 100 µM (inactive) each time. Besides, the GI50 was > 100 µM (inactive) in the test with SR; 65.5 µM (inactive) with HL-60; > 100 µM (inactive) in the test with RXF 393; > 100 µM (inactive) with UO-31; > 100 µM (inactive) in the test on HOP-92; > 100 µM (inactive) in the test with SK-MEL-28. In addition, the GI50 in the test on M14, in the test on MOLT-4, in the test with K562, with U-251 and in the test with CCRF-CEM was > 100 µM (inactive) each time.

As to `CC(=O)N1CCN(C=S)CC1`, the GI50 in the test on UACC-62, in the test on HOP-62, with SW-620, in the test with COLO 205, in the test on 786-0 and in the test on SR was > 100 µM (inactive) in each case. Moreover, the GI50 in the test on HL-60, in the test with RXF 393, with UO-31, with HOP-92, in the test with SK-MEL-28 and with M14 was > 100 µM (inactive) throughout. Also, the GI50 in the test with MOLT-4, with K562, in the test on HCC 2998, with U-251 and in the test on CCRF-CEM was > 100 µM (inactive) in each case.

Turning to `CC(=O)NNc1nc(C)c(C(=O)NNC(=O)C(=O)Nc2c(C)cccc2C)s1`, the GI50 in the test with UACC-62 is 33.3 µM (inactive); with HOP-62, > 100 µM (inactive); in the test with SW-620 it was 42.9 µM (inactive); in the test on COLO 205, 31.8 µM (inactive); in the test with 786-0, 50.8 µM (inactive); with SK-MEL-2, 48.9 µM (inactive). The GI50 with HL-60 is 25.9 µM (inactive); with RXF 393, 32.2 µM (inactive); in the test on UO-31 it was 53.8 µM (inactive); with HOP-92 it was 40.4 µM (inactive); with SK-MEL-28, 76.6 µM (inactive); in the test with M14, 54.1 µM (inactive). Also, the GI50 with MOLT-4 was 22.6 µM (inactive); in the test with K562, 34 µM (inactive); in the test with HCC 2998, 95.9 µM (inactive); in the test with U-251 it was 43.9 µM (inactive); in the test with CCRF-CEM, 32 µM (inactive).

Regarding `CCOC(=O)C1=C(C)N(NC(N)=O)C2(N)N(NC(N)=O)C(C)=C(C(=O)OCC)C12C#N` (configuration not stated), the GI50 in the test with UACC-62, with HOP-62, with SW-620, in the test with 786-0, with SK-MEL-2 and in the test with SR was > 100 µM (inactive) each time. Besides, the GI50 in the test with UO-31, with SK-MEL-28, with M14, in the test on MOLT-4, in the test on K562 and in the test on HCC 2998 was > 100 µM (inactive) throughout. Besides, the GI50 in the test on U-251 is > 100 µM (inactive).

Regarding `c1ccc2c(c1)N=C(c1cccc3ccccc13)CC(c1cccc3ccccc13)S2` (configuration not stated), the GI50 was 5.21 µM (inactive) in the test on UACC-62; 9.14 µM (inactive) in the test on HOP-62; 2.56 µM (inactive) in the test on SW-620; 12.9 µM (inactive) with COLO 205; 3.8 µM (inactive) in the test on 786-0; 14.9 µM (inactive) in the test on SK-MEL-2. Besides, the GI50 with SR was 2.07 µM (inactive); in the test with HL-60, 0.467 µM (active); in the test on RXF 393, 3.48 µM (inactive); in the test on UO-31, 11.2 µM (inactive); in the test on SK-MEL-28, 7.36 µM (inactive); with M14, 13.2 µM (inactive). Besides, the GI50 in the test on MOLT-4 was 2.24 µM (inactive); in the test with K562 it was 2.49 µM (inactive); in the test on HCC 2998, 4.21 µM (inactive); in the test on U-251 it was 2.63 µM (inactive); in the test with CCRF-CEM, 2.05 µM (inactive).

On to `Cc1ccc(/C=C/C(=O)c2cccc3ccccc23)cc1`, for which the GI50 was 17.4 µM (inactive) with UACC-62; 20.7 µM (inactive) with HOP-62; 13.5 µM (inactive) in the test with SW-620; 20.5 µM (inactive) in the test on COLO 205; 15 µM (inactive) in the test on 786-0; 18.5 µM (inactive) with SK-MEL-2. For the same compound, the GI50 in the test with SR is 11.3 µM (inactive); in the test on HL-60, 7.18 µM (inactive); in the test on RXF 393, 12.7 µM (inactive); in the test on UO-31, 25 µM (inactive); in the test on SK-MEL-28 it was 18 µM (inactive); in the test on M14 it was 19.3 µM (inactive). For the same compound, the GI50 is 13.6 µM (inactive) with MOLT-4; 8.65 µM (inactive) with K562; 22.9 µM (inactive) in the test with HCC 2998; 13 µM (inactive) in the test on U-251; 15.9 µM (inactive) with CCRF-CEM.

Take `CCCCCC(=O)C(C)C1=Nc2nnc(CCCCCCCc3nnc4n3C(=O)C(C(C)C(=O)CCCCC)=N4)n2C1=O` (configuration not stated): the GI50 in the test with UACC-62, in the test on HOP-62, in the test on SW-620, in the test on COLO 205, with 786-0 and with SR was > 100 µM (inactive) each time. For the same compound, the GI50 in the test with HL-60, with RXF 393, with UO-31, in the test on SK-MEL-28, in the test on M14 and with MOLT-4 was > 100 µM (inactive) throughout. The GI50 with K562, in the test with HCC 2998, in the test on U-251 and with CCRF-CEM was > 100 µM (inactive) throughout.

Regarding `O=C1[C@@H]2C(c3cccc([N+](=O)[O-])c3)=NO[C@@H]2C(=O)N1c1ccc(Cc2ccc(N3C(=O)[C@H]4C(c5cccc([N+](=O)[O-])c5)=NO[C@H]4C3=O)cc2)cc1`, the GI50 in the test with UACC-62 was > 100 µM (inactive); in the test with HOP-62, > 100 µM (inactive); in the test on SW-620, > 100 µM (inactive); in the test on COLO 205, > 100 µM (inactive); in the test with 786-0, 91 µM (inactive); with SK-MEL-2, > 100 µM (inactive). For the same compound, the GI50 in the test on SR, with RXF 393, in the test on UO-31, in the test on HOP-92, with SK-MEL-28 and with M14 was > 100 µM (inactive) each time. In addition, the GI50 is > 100 µM (inactive) with MOLT-4, > 100 µM (inactive) in the test on K562, > 10 µM (inactive) in the test on U-251 and > 100 µM (inactive) with CCRF-CEM.

Regarding `Cc1ccc(S(=O)(=O)N/N=C2\CCCCC23CCC(=O)NC3)cc1` (configuration not stated), the GI50 with UACC-62, in the test with HOP-62, with SW-620, in the test on COLO 205, in the test with 786-0 and in the test with SK-MEL-2 was > 100 µM (inactive) each time. Further, the GI50 with SR, with HL-60, with RXF 393, in the test on UO-31, in the test on SK-MEL-28 and in the test on M14 was > 100 µM (inactive) each time. Besides, the GI50 in the test with MOLT-4, in the test on K562, in the test with HCC 2998, with U-251 and in the test with CCRF-CEM was > 100 µM (inactive) in each case.
